{"source": "ChEMBL document CHEMBL3272106", "about": "“Synthesis and narcotic agonist-antagonist evaluation of some 2,6-methano-3-benzazocine-11 propanols. Analogues of the ring C bridged oripavine-7-mehtanols” (1977)", "key": {"Rattus norvegicus [1]": {"system": "Rattus norvegicus", "assay": "Narcotic antagonist activity in sc dosed rat assessed as 50% inhibition of phenazocine-induced response", "type": "functional"}, "Mus musculus [2]": {"system": "Mus musculus", "assay": "Narcotic agonist activity in sc dosed albino mouse assessed as protection against acetylcholine-induced writhing administered 20 mins prior to acetylcholine challenge measured for 2 mins", "type": "functional"}, "Rattus norvegicus [3]": {"system": "Rattus norvegicus", "assay": "Narcotic antagonist activity in rat assessed as inhibition of phenazocine-induced response at 80 mg/kg, sc", "type": "functional, organism-based", "set-up": "dose 80 mg/kg"}, "Mus musculus [4]": {"system": "Mus musculus", "assay": "Narcotic agonist activity in albino mouse assessed as protection against acetylcholine-induced writhing at 25 mg/kg, sc administered 20 mins prior to acetylcholine challenge measured for 2 mins relative to control", "type": "functional", "conditions": "route subcutaneous"}, "Rattus norvegicus [5]": {"system": "Rattus norvegicus", "assay": "Narcotic antagonist activity in rat assessed as inhibition of phenazocine-induced response at 80 mg/kg, sc relative to nalorphine", "type": "functional", "set-up": "scale not given: the % may be the effect or the level left", "conditions": "route subcutaneous"}, "[6]": {"conditions": "Mus musculus, sc, read-out: ED50"}}, "note": "Activity calls are given as the source filed them. No cut-off for these calls is given here."}
{"smiles": "C=CCN1CC[C@]23c4c5ccc(O)c4O[C@H]2[C@@H](O)C=C[C@H]3[C@H]1C5", "note": "[NALORPHINE]", "values": [{"measurement": "AD50", "setting": "Rattus norvegicus [1]", "result": 0.1, "unit": "mg/kg"}]}
{"smiles": "CO[C@@]12CC[C@@]3(C[C@@H]1[C@](C)(O)C(C)(C)C)[C@H]1Cc4ccc(O)c5c4[C@@]3(CCN1CC1CC1)[C@H]2O5", "note": "[BUPRENORPHINE]", "values": [{"measurement": "AD50", "setting": "Rattus norvegicus [1]", "result": 0.11, "unit": "mg/kg"}]}
{"smiles": "C[C@H]1[C@H]2Cc3ccc(O)cc3[C@]1(C)CCN2CC1CC1", "note": "[CYCLAZOCINE]", "values": [{"measurement": "AD50", "setting": "Rattus norvegicus [1]", "result": 0.007, "unit": "mg/kg"}, {"measurement": "ED50", "setting": "Mus musculus [2]; [6]", "result": 0.15, "unit": "mg/kg"}]}
{"smiles": "CCC(C)(O)CC[C@@H]1[C@H]2Cc3ccc(O)cc3[C@@]1(C)CCN2C.CS(=O)(=O)O", "note": "(stereo not given in full)", "values": [{"measurement": "ED50", "setting": "Mus musculus [2]; [6]", "result": 3.3, "unit": "mg/kg"}, {"measurement": "inhibition", "setting": "Rattus norvegicus [3]", "result": "inactive"}]}
{"smiles": "CC(C)(C)C(C)(O)CC[C@@H]1[C@H]2Cc3ccc(O)cc3[C@@]1(C)CCN2CC1CC1.CS(=O)(=O)O", "note": "(single isomer, unassigned; isomer II)", "values": [{"measurement": "AD50", "setting": "Rattus norvegicus [1]", "result": 1.1, "unit": "mg/kg"}, {"measurement": "ED50", "setting": "Mus musculus [2]", "result": 9, "unit": "mg/kg"}]}
{"smiles": "CC(C)(O)CC[C@@H]1[C@H]2Cc3ccc(O)cc3[C@@]1(C)CCN2CC1CC1", "values": [{"measurement": "AD50", "setting": "Rattus norvegicus [1]", "result": 0.046, "unit": "mg/kg"}, {"measurement": "ED50", "setting": "Mus musculus [2]; [6]", "result": 16, "unit": "mg/kg"}]}
{"smiles": "C[C@H]1[C@@H]2Cc3ccc(O)cc3[C@]1(C)CCN2C", "note": "[METAZOCINE]", "values": [{"measurement": "ED50", "setting": "Mus musculus [2]; [6]", "result": 0.54, "unit": "mg/kg"}, {"measurement": "inhibition", "setting": "Rattus norvegicus [3]", "result": "inactive"}]}
{"smiles": "CN1CC[C@]2(C)c3cc(O)ccc3C[C@@H]1[C@@]2(C)CCC(C)(C)O", "values": [{"measurement": "AD50", "setting": "Rattus norvegicus [1]", "result": 2.3, "unit": "mg/kg"}, {"measurement": "ED50", "setting": "Mus musculus [2]; [6]", "result": 3.8, "unit": "mg/kg"}]}
{"smiles": "CCC(C)(O)CC[C@@H]1[C@H]2Cc3ccc(O)cc3[C@@]1(C)CCN2CC1CC1.CS(=O)(=O)O", "note": "(stereo not given in full)", "values": [{"measurement": "AD50", "setting": "Rattus norvegicus [1]", "result": 0.04, "unit": "mg/kg"}, {"measurement": "ED50", "setting": "Mus musculus [2]; [6]", "result": 7.9, "unit": "mg/kg"}]}
{"smiles": "CN1CC[C@]2(C)c3cc(O)ccc3C[C@@H]1[C@H]2CCC(C)(O)C(C)(C)C.CS(=O)(=O)O", "note": "(stereo in doubt; 4e)", "values": [{"measurement": "Activity", "setting": "Mus musculus [4]", "result": "<50", "unit": "%"}, {"measurement": "ED50", "setting": "Mus musculus [2]", "result": ">75", "unit": "mg/kg"}]}
{"smiles": "CCCCC(C)(O)CC[C@@H]1[C@H]2Cc3ccc(O)cc3[C@@]1(C)CCN2C.CS(=O)(=O)O", "note": "(stereo not given in full)", "values": [{"measurement": "ED50", "setting": "Mus musculus [2]; [6]", "result": 2.5, "unit": "mg/kg"}, {"measurement": "inhibition", "setting": "Rattus norvegicus [3]", "result": "inactive"}]}
{"smiles": "CN1CC[C@]2(C)c3cc(O)ccc3C[C@@H]1[C@H]2CCC(C)(O)C(C)(C)C.CS(=O)(=O)O", "note": "(stereo in doubt; 4f)", "values": [{"measurement": "ED50", "setting": "Mus musculus [2]", "result": ">25", "unit": "mg/kg"}]}
{"smiles": "CC(C)(C)C(C)(O)CC[C@@H]1[C@H]2Cc3ccc(O)cc3[C@@]1(C)CCN2CC1CC1.CS(=O)(=O)O", "note": "(single isomer, unassigned; isomer I)", "values": [{"measurement": "AD50", "setting": "Rattus norvegicus [1]", "result": 0.27, "unit": "mg/kg"}, {"measurement": "Activity", "setting": "Mus musculus [4]", "result": "<50", "unit": "%"}, {"measurement": "ED50", "setting": "Mus musculus [2]", "result": ">25", "unit": "mg/kg"}]}
{"smiles": "CN1CC[C@]2(C)c3cc(O)ccc3C[C@@H]1[C@@]2(C)CCC(C)(O)C(C)(C)C", "note": "(stereo not given in full) [listing 1 of 2 here]", "values": [{"measurement": "Activity", "setting": "Mus musculus [4]", "result": "<50", "unit": "%"}, {"measurement": "ED50", "setting": "Mus musculus [2]; [6]", "result": "> 25", "unit": "mg/kg"}]}
{"smiles": "CC(C)(O)CC[C@]1(C)[C@H]2Cc3ccc(O)cc3[C@@]1(C)CCN2CC1CC1.Cl", "values": [{"measurement": "AD50", "setting": "Rattus norvegicus [1]", "result": 0.006, "unit": "mg/kg"}, {"measurement": "ED50", "setting": "Mus musculus [2]; [6]", "result": 4.5, "unit": "mg/kg"}]}
{"smiles": "CC(C)(C)C(C)(O)CC[C@]1(C)[C@H]2Cc3ccc(O)cc3[C@@]1(C)CCN2CC1CC1.CS(=O)(=O)O", "note": "(single isomer, unassigned; isomer II)", "values": [{"measurement": "AD50", "setting": "Rattus norvegicus [1]", "result": 0.71, "unit": "mg/kg"}]}
{"smiles": "CCCC(C)(O)CC[C@@H]1[C@H]2Cc3ccc(O)cc3[C@@]1(C)CCN2CC1CC1.CS(=O)(=O)O", "note": "(stereo not given in full)", "values": [{"measurement": "AD50", "setting": "Rattus norvegicus [1]", "result": 0.019, "unit": "mg/kg"}, {"measurement": "ED50", "setting": "Mus musculus [2]; [6]", "result": 7.6, "unit": "mg/kg"}]}
{"smiles": "CCCC(C)(O)CC[C@@H]1[C@H]2Cc3ccc(O)cc3[C@@]1(C)CCN2C.CS(=O)(=O)O", "note": "(stereo not given in full)", "values": [{"measurement": "ED50", "setting": "Mus musculus [2]; [6]", "result": 2.6, "unit": "mg/kg"}, {"measurement": "inhibition", "setting": "Rattus norvegicus [3]", "result": "inactive"}]}
{"smiles": "CC(C)(C)C(C)(O)CC[C@]1(C)[C@H]2Cc3ccc(O)cc3[C@@]1(C)CCN2CC1CC1.CS(=O)(=O)O", "note": "(stereo in doubt; 4q)", "values": [{"measurement": "AD50", "setting": "Rattus norvegicus [1]", "result": 0.022, "unit": "mg/kg"}, {"measurement": "Activity", "setting": "Mus musculus [4]", "result": "<50", "unit": "%"}]}
{"smiles": "CN1CC[C@]2(C)c3cc(O)ccc3C[C@@H]1[C@@]2(C)CCC(C)(O)C(C)(C)C.CS(=O)(=O)O", "note": "(mixture of isomers)", "values": [{"measurement": "Activity", "setting": "Rattus norvegicus [5]", "result": 30, "unit": "%"}, {"measurement": "AD50", "setting": "Rattus norvegicus [1]", "result": 0.33, "unit": "mg/kg"}, {"measurement": "Activity", "setting": "Mus musculus [4]", "result": "<50", "unit": "%"}, {"measurement": "ED50", "setting": "Mus musculus [2]; [6]", "result": "> 25", "unit": "mg/kg"}]}
{"smiles": "CN1CC[C@]2(C)c3cc(O)ccc3C[C@@H]1[C@H]2CCC(C)(O)C(C)(C)C", "note": "(stereo in doubt; 4f)", "values": [{"measurement": "inhibition", "setting": "Rattus norvegicus [3]", "result": "inactive"}]}
{"smiles": "CCCCC(C)(O)CC[C@@H]1[C@H]2Cc3ccc(O)cc3[C@@]1(C)CCN2CC1CC1.CS(=O)(=O)O", "note": "(stereo not given in full)", "values": [{"measurement": "AD50", "setting": "Rattus norvegicus [1]", "result": 0.025, "unit": "mg/kg"}, {"measurement": "ED50", "setting": "Mus musculus [2]; [6]", "result": 6.5, "unit": "mg/kg"}]}
{"smiles": "CN1CC[C@]2(C)c3cc(O)ccc3C[C@@H]1[C@@]2(C)CCC(C)(O)C(C)(C)C", "note": "(stereo not given in full) [listing 2 of 2 here]", "values": [{"measurement": "inhibition", "setting": "Rattus norvegicus [3]", "result": "inactive"}]}
{"smiles": "CN1CC[C@]2(C)c3cc(O)ccc3C[C@@H]1[C@H]2CCC(C)(C)O", "values": [{"measurement": "ED50", "setting": "Mus musculus [2]; [6]", "result": 8.2, "unit": "mg/kg"}, {"measurement": "inhibition", "setting": "Rattus norvegicus [3]", "result": "inactive"}]}
